The record followed here is patent publication US9701628B2, “12-epi pleuromutilins” (NABRIVA THERAPEUTICS AG, priority 2014, dated 2017).

The test system of test [1] is Escherichia coli ATCC25922. Briefly: MIC by broth microdilution (CLSI) against Escherichia coli ATCC 25922. It is filed as cell-based. On the procedure:
(§1) The in vitro activity against aerobic bacteria was determined by Broth Microdilution Test according to the Clinical and Laboratory Standards Institute (CLSI, former NCCLS) Document M7-A9 Vol 32, No 2 “Methods for Dilution Antimicrobial Susceptibility Tests for Bacteria that Grow Aerobically; Approved Standard—Ninth Edition (2012)”; and the test against anaerobic bacteria was performed by Agar Dilution Test according to the Clinical and Laboratory Standards Institute (CLSI, former NCCLS), Document, M11-A8, Vol. 32, No. 5: “Methods for Antimicrobial Susceptibility Testing of Anaerobic Bacteria; Approved Standard—Eighth Edition (2012)”. Performance standards and interpretive criteria followed the CLSI Document, M100-S23: “Performance Standards for Antimicrobial Susceptibility Testing; Twenty-Third Informational Supplement” (2013). The in vivo activity was tested by the septicaemia mouse model against Staphylococcus aureus and Escherichia coli.
(§2) The antibacterial activity expressed as minimal inhibitory concentration (MIC) was determined according to the approved standard reference recommendations of CLSI (former NCCLS) as described in the description of the application.
For orientation: Dilution methods test growth across graded concentrations, often in twofold steps.

The subject of test [2] is Staphylococcus aureus ATCC 49951. Briefly: MIC by broth microdilution (CLSI) against Staphylococcus aureus ATCC 49951. It is filed as cell-based. On the procedure: as §1, §2
Setting [3] is: Escherichia coli ATCC25922, in vitro.
Where [4] appears, read: Staphylococcus aureus ATCC 49951, in vitro.
Setting [5] is: Escherichia coli ATCC25922, in vitro, read-out: MIC.
Where [6] appears, read: ATCC49951, Staphylococcus aureus ATCC 49951, in vitro, read-out: MIC.

In brackets after ≈: the same amount, converted by molar mass. Structures can show the parent of a compound that is named as a salt. Where two headings read alike, the source gives them in different places. Where only a bound is given, the exact number is not on record here.

With `CC1C(O)C(C)(CNCc2cc(F)c(CN)cc2F)CC(OC(=O)CSc2ccc(CN)cn2)C2(C)C(C)CCC13CCC(=O)C32.Cl.Cl.Cl.Cl` (stereo not drawn) [Example 103, 12-epi-12-desvinyl-14-O-{[5-Aminomethyl-pyridin-2-yl-sulfanyl]-acetyl}-12-[(4-aminomethyl-2,5-difluoro-benzylamino)-methyl] mutilin tetrahydrochloride], the MIC was 4 µg/mL in test [1] (setting [3]) and 0.5 µg/mL in test [2] (setting [4]).

Regarding `CC1C(O)C(C)(CNCCCN)CC(OC(=O)CSc2ccc(CNCc3ccc(CN)cc3)cc2)C2(C)C(C)CCC13CCC(=O)C32.Cl.Cl.Cl.Cl` (stereo not drawn) [Example 115, 12-epi-12-desvinyl-14-O-{{4-[(4-Aminomethyl-benzylamino)-methyl]-phenylsulfanyl}-acetyl}-12-[(3-amino-propylamino)-methyl] mutilin tetrahydrochloride], the MIC in test [1] (setting [3]) was 0.25 µg/mL; in test [2] (setting [4]) it was “≦0.03 μg/mL”.

For the compound `C[C@@H]1CC[C@@]23CCC(=O)[C@H]2[C@]1(C)[C@H](OC(=O)CSC1CCCNCC1)C[C@](C)(CNCCCCCCN)[C@@H](O)[C@@H]3C` (stereo partly drawn) [Example 130, 12-epi-12-desvinyl-14-O-[(Azepan-4-ylsulfanyl)-acetyl]-12-[(6-amino-hexylamino)-methyl] mutilin trihydrochloride], the MIC in test [1] (setting [5]) was 0.5 µg/mL; in test [2] (setting [6]), at most 0.03 µg/mL.

For `CC1C(O)C(C)(CNCCCCCCNC(=N)N)CC(OC(=O)CSC2CCCNCC2)C2(C)C(C)CCC13CCC(=O)C32.Cl.Cl.Cl` (stereo not drawn) [Example 131, 12-epi-12-desvinyl-14-O-[(Azepan-4-ylsulfanyl)-acetyl]-12-[(6-guanidino-hexylamino)-methyl] mutilin trihydrochloride], the MIC in test [1] (setting [3]) turned out to be 0.125 µg/mL; in test [2] (setting [4]) it was 0.06 µg/mL.

For the compound `C[C@@H]1CC[C@@]23CCC(=O)[C@H]2[C@]1(C)[C@H](OC(=O)CSC1CCCNCC1)C[C@](C)(CCNc1ccc(CN)cc1)[C@@H](O)[C@@H]3C` (stereo partly drawn) [Example 143, 12-epi-12-desvinyl-14-O-[(Azepan-4-ylsulfanyl)-acetyl]-12-[(4-aminomethyl-phenylamino)-ethyl] mutilin trihydrochloride], the MIC in test [1] (setting [5]) is 4 µg/mL; in test [2] (setting [6]), 0.125 µg/mL.

As for `C[C@@H]1CC[C@@]23CCC(=O)[C@H]2[C@]1(C)[C@H](OC(=O)CSC1CCN(C(=O)CN)CC1)C[C@](C)(CCCCCCCCN)[C@@H](O)[C@@H]3C` [Example 146, 12-epi-12-desvinyl-14-O-{[1-(2-Amino-acetyl)-piperidin-4-yl-sulfanyl]-acetyl}-2-(8-amino-octyl) mutilin dihydrochloride], the MIC is 8 µg/mL in test [1] (setting [5]) and at most 0.03 µg/mL in test [2] (setting [6]).

Turning to `C[C@@H]1CC[C@@]23CCC(=O)C2[C@]1(C)[C@H](OC(=O)CSC1CCC(CNC(=O)CN)CC1)C[C@](C)(CCc1ccc(CNCCN)cc1)[C@@H](O)[C@@H]3C` (stereo partly drawn) [Example 152, 12-epi-12-desvinyl-14-O-{{4-[(2-Amino-acetylamino)-methyl]-cyclohexylsulfanyl}-acetyl}-12-[2-{4-[(2-amino-ethylamino)-methyl]-phenyl}-ethyl) mutilin trihydrochloride], the results for the MIC in test [1] (setting [5]) and in test [2] (setting [6]) were 4 µg/mL and 0.25 µg/mL, respectively.

Regarding `CC1C(O)C(C)(C=Cc2ccc(CNCCN)c(F)c2)CC(OC(=O)CSC2CCCNCC2)C2(C)C(C)CCC13CCC(=O)C32.Cl.Cl.Cl` (stereo not drawn) [Example 157, 12-epi-12-desvinyl-14-O-[(Azepan-4-ylsulfanyl)-acetyl]-12-((E)-2-{4-[(2-amino-ethylamino)-methyl]-3-fluoro-phenyl}-ethenyl) mutilin trihydrochlorid], the MIC stood at 4 µg/mL in test [1] (setting [3]) and 0.25 µg/mL in test [2] (setting [4]).

In the case of `C=C[C@@]1(C)C[C@@H](OC(=O)CSc2nnc(N)[nH]2)[C@]2(C)[C@H](C)CC[C@]3(CCC(=O)[C@H]32)[C@@H](C)[C@@H]1O.Cl` [Example C1, 12-epi-14-O-{[(5-Amino-4H-1,2,4-triazol-3-yl)-sulfanyl]-acetyl} mutilin hydrochloride, reference compound], the MIC in test [1] (setting [3]) stood at 128 µg/mL; in test [2] (setting [4]) it was 0.5 µg/mL.

For the compound `C=CC1(C)CC(OC(=O)CSc2ccc(CC(=O)NCC(C)N)cc2)C2(C)C(C)CCC3(CCC(=O)C32)C(C)C1O.Cl` (centres unmarked) [Example C2, 14-O-{{4-[(2-Amino-propylcarbamoyl)-methyl]-phenylsulfanyl}-acetyl} mutilin hydrochloride, reference compound], the MIC was 32 µg/mL in test [1] (setting [3]) and “≦0.03 μg/mL” in test [2] (setting [4]).

Regarding `CC1C(O)C(C)(CNCCCN)CC(OC(=O)CSC2CCC(N)CC2O)C2(C)C(C)CCC13CCC(=O)C32.Cl.Cl.Cl` [Example C3, 14-O-{[(1R,2R,4R)-4-Amino-2-hydroxy-cyclohexylsulfanyl]-acetyl}-12-desvinyl-12-[(3-amino-propylamino)-methyl] mutilin trihydrochlorid, reference compound], the MIC in test [1] (setting [3]) was over 32 µg/mL; in test [2] (setting [4]), 16 µg/mL.

As to `C=C[C@]1(C)C[C@@H](OC(=O)CS[C@@H]2C[C@H]3CC[C@@H](C2)N3C)[C@]2(C)[C@H](C)CC[C@]3(CCC(=O)[C@H]32)[C@@H](C)[C@@H]1O` [Retapamulin, retapamulin, reference compound], the minimal inhibitory concentration (MIC) in test [1] (Escherichia coli, ATCC25922) is 32 µg/mL (≈ 61.8 µM); in test [2] (Staphylococcus aureus, ATCC49951) it was at most 0.03 µg/mL.

With `C=C[C@]1(C)C[C@@H](OC(=O)CSCCN(CC)CC)[C@]2(C)[C@H](C)CC[C@]3(CCC(=O)[C@H]32)[C@@H](C)[C@@H]1O` [Tiamulin, tiamulin, reference compound], the MIC in test [1] (setting [5]) was over 32 µg/mL; in test [2] (setting [6]) it was 0.5 µg/mL (≈ 1.01 µM).

By MIC is commonly meant the smallest concentration in the dilution series that meets the test's criterion for growth inhibition.
